Results published in patent US10633338B2, “Binding Function 3 (BF3) site compounds as therapeutics and methods for their use” (THE UNIVERSITY OF BRITISH COLUMBIA, priority 2014, dated 2020).
pIC50: −log10 of the molar value. Read-outs that look alike come from different tables or passages of the source.

Tests used:
androgen receptor (AR) = target: T1, androgen receptor (AR) (Homo sapiens, UniProt P10275, T878A); assay: eGFP cellular AR transcription assay; format: cell-based
T1 construct: stably transfected eGFP-expressing LNCaP human prostate cancer cells (LN-ARR2PB-eGFP) containing an androgen responsive probasin-derived promoter; endogenous in cells; host or cells: LNCaP (LN-ARR2PB-eGFP)
T1 sequence (P10275 1-920 T878A): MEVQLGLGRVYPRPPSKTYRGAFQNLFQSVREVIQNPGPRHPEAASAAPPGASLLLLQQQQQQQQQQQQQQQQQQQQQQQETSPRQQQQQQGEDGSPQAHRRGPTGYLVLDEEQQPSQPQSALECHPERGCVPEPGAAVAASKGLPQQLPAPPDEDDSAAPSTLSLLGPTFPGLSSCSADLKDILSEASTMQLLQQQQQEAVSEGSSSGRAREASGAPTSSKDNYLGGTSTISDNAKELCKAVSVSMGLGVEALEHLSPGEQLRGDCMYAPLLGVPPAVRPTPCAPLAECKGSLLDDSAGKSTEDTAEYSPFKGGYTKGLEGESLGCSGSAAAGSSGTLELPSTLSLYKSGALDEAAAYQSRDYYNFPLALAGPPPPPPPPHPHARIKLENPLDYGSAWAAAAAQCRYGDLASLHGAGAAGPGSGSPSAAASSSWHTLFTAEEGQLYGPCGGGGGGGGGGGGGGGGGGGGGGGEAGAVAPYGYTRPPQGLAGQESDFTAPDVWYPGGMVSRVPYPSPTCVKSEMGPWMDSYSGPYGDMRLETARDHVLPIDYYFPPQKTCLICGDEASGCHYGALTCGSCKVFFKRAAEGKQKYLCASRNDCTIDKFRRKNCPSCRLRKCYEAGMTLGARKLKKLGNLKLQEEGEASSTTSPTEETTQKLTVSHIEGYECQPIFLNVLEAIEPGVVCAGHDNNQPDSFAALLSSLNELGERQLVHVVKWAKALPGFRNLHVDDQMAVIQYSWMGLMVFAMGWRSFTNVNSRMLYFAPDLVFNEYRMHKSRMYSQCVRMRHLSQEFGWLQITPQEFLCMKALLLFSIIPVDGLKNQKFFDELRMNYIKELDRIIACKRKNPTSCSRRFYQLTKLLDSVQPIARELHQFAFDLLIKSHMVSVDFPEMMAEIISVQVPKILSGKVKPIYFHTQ
Method: After 5 days, the cells were plated into a 96-well plate (35,000 cells/well) with 0.1 nM of the synthetic androgen R1881 and increasing concentrations (0-100 μM) of compound.
After 5 days, the cells were plated into a 96-well plate (35,000 cells/well) with 0.1 nM R1881 and increasing concentrations (0-100 μM) of compound.
In this assay, the expression of eGFP is under the control of an androgen responsive probasin-derived promoter and can quantify AR transcriptional activity.

PSA = assay: Prostate Surface Antigen (PSA) assay, PSA excreted into the media; format: cell-based, human; settings: same plates as eGFP assay
Method: The evaluation of PSA excreted into the media was performed in parallel to the eGFP assay using the same plates (see above description). After the cells were incubated for 3 days 150 μl of the media was taken from each well, and added to 150 μl of PBS.

[1] = LN-ARR2PBeGFP LNCaP cells, 0.1 nM R1881, 3 days incubation, read-out: eGFP IC50
[2] = Homo sapiens, 72 h, PSA excreted into media, 3 days incubation, read-out: PSA IC50
[3] = LN-ARR2PB-eGFP LNCaP cells, 0.1 nM R1881, 3 days, 0-100 μM compound, read-out: IC50 (eGFP)
[4] = Homo sapiens, 72 h, media after 3 days, read-out: IC50 (PSA)
[5] = LN-ARR2PBeGFP LNCaP cells, 0.1 nM R1881, 3 days incubation
[6] = PSA excreted into media, 3 days incubation

Row | pIC50 (androgen receptor (AR); [1]) | pIC50 (PSA; [2]) | SMILES | further results
1 | 5.32 | 5.57 | CC1(C)c2ccccc2NC1C1CN(CCO)c2ccccc21 (centres unmarked) [Compound 13508] | –
2 | 6.64 | 6.60 | CNC(=O)c1cccc2nc(-c3c[nH]c4c(C)cc(F)cc34)ccc12 [Compound 13710] | –
3 | 5.55 | 5.66 | Cc1ccc2ccc(-c3c[nH]c4c(C)cccc34)nc2c1 [Compound 13658] | –
4 | 7.38 | 7.38 | CNC(=O)c1cccc2nc(-c3c[nH]c4c(F)cc(F)cc34)ccc12 [Compound 13696] | –
5 | 5.59 | 5.51 | COc1ccc2[nH]c(-c3c[nH]c4ccccc34)cc2c1 [Compound 13509] | –
6 | 5.91 | 6.39 | Fc1ccc2[nH]cc(-c3cc4ccccc4[nH]3)c2c1 [Compound 13500] | –
7 | 6.75 | 6.65 | Cc1c(F)ccc2c(-c3ccc4ccc(F)cc4n3)c[nH]c12 [Compound 13646] | –
8 | 7.12 | 7.29 | c1ccc2cc(-c3n[nH]c4ccccc34)ccc2c1 [Compound 13674] | –
9 | 6.66 | 6.70 | Fc1ccc(-c2c[nH]c3ccccc23)nc1 [Compound 13742] | –
10 | 6.10 | 6.21 | c1ccc2ncc(-c3c[nH]c4ccccc34)cc2c1 [Compound 13628] | –
11 | 5.89 | 5.80 | CN1c2ccccc2C[C@@H]1c1c[nH]c2ccccc12 [Compound 13164-B] | –
12 | 5.84 | 6.09 | Cc1cc(F)c2[nH]cc(-c3ccc4ccccc4n3)c2c1 [Compound 13612] | –
13 | 6.32 | 6.37 | Fc1ccc2nc(-c3c[nH]c4c(F)c(F)c(F)cc34)cnc2c1 [Compound 13762] | –
14 | 7.00 | 7.77 | Fc1cc2c(-c3ccc4cccnc4c3)c[nH]c2c(F)c1F [Compound 13770] | –
15 | 6.00 | 6.02 | FC(F)(F)c1ccccc1-c1c[nH]c2ccccc12 [Compound 13745] | –

More lines, now with the values behind:

Row | SMILES | pIC50 (androgen receptor (AR); [1]) | pIC50 (PSA; [2]) | further results
16 | C[C@@H]1Cc2ccccc2N1c1nc2ccccc2o1 [Compound 13245] | 5.77 | 5.77 | –
17 | Cc1cccc2c(-c3ccc4ocnc4c3)c[nH]c12 [13 759] | – | – | pIC50 (androgen receptor (AR); [3]): 6.52; pIC50 (PSA; [4]): 6.57
18 | Cc1cccc2c(-c3ccc4cccnc4c3)c[nH]c12 [13 744] | – | – | pIC50 (androgen receptor (AR); [3]): 6.12; pIC50 (PSA; [4]): 6.12
19 | Cc1cc(F)cc2c(-c3ccc4c(Cl)cccc4n3)c[nH]c12 [Compound 13709] | – | – | eGFP IC50 (androgen receptor (AR); [5]): Inactive; PSA IC50 (PSA; [6]): Inactive
20 | COc1ccc(Br)cc1-c1c[nH]c2ccccc12 [Compound 13638] | – | – | eGFP IC50 (androgen receptor (AR); [5]): Inactive; PSA IC50 (PSA; [6]): Inactive
21 | Clc1cccc(/N=N/c2c[nH]c3ccccc23)c1 [Compound 13226] | 6.96 | 7.12 | –
22 | FC(F)(F)c1ccccc1/N=N/c1c[nH]c2ccccc12 [Compound 13259] | 6.52 | 6.60 | –
23 | c1ccc2nc(-c3c[nH]c4ccccc34)ccc2c1 [Compound 13562] | 7.22 | 6.85 | –
24 | Brc1cccc2c(-c3ccc4ccccc4n3)c[nH]c12 [Compound 13582] | 7.28 | 7.39 | –
25 | Cc1cccc2c(-c3ncc4ccccc4n3)c[nH]c12 [Compound 13603] | 6.20 | 6.47 | –
26 | c1ccc(-c2ccc(-c3c[nH]c4ncccc34)cc2)cc1 [13 715] | – | – | pIC50 (androgen receptor (AR); [3]): 5.39; pIC50 (PSA; [4]): 6.46
27 | c1ccc2c(-c3nn[nH]n3)c[nH]c2c1 [Compound 13701] | – | – | eGFP IC50 (androgen receptor (AR); [5]): Inactive; PSA IC50 (PSA; [6]): Inactive
28 | c1ccc(-c2c[nH]c3ncccc23)cc1 [13 739] | – | – | pIC50 (androgen receptor (AR); [3]): 6.18; pIC50 (PSA; [4]): 6.17
29 | Cc1cccc2c(-c3ccc4c([N+](=O)[O-])cccc4n3)c[nH]c12 [Compound 13632] | – | – | eGFP IC50 (androgen receptor (AR); [5]): Inactive; PSA IC50 (PSA; [6]): Inactive
30 | Cc1[nH]c2ccccc2c1SCc1ccccc1F [Compound 13411] | 5.62 | 5.62 | –
31 | c1ccc(-c2ccc(-c3c[nH]c4cccnc34)cc2)cc1 [13 735] | – | – | pIC50 (androgen receptor (AR); [3]): 5.41; pIC50 (PSA; [4]): 5.84
32 | Fc1ccc2ccc(Cl)nc2c1 [Compound 13728] | – | – | eGFP IC50 (androgen receptor (AR); [5]): Inactive; PSA IC50 (PSA; [6]): Inactive
33 | Cc1cc(F)cc2c(-c3cnc4ccc(F)cc4n3)c[nH]c12 [Compound 13717] | 6.31 | 6.48 | –
34 | Cc1ccc2[nH]cc(C3Nc4ccccc4C3(C)C)c2c1 (centres unmarked) [13 535] | – | – | pIC50 (androgen receptor (AR); [3]): 5.82; pIC50 (PSA; [4]): 5.73
35 | Cc1c(F)ccc2c(-c3ccc4c(C#N)cccc4n3)c[nH]c12 [Compound 13609] | – | – | eGFP IC50 (androgen receptor (AR); [5]): Inactive; PSA IC50 (PSA; [6]): Inactive
36 | c1ccc2c(c1)NC(c1c[nH]c3ccccc13)C21CCCCC1 (centres unmarked) [13 534] | – | – | pIC50 (androgen receptor (AR); [3]): 6.10; pIC50 (PSA; [4]): 5.90
37 | Clc1ccccc1/N=N/c1c[nH]c2ccccc12 [Compound 13255] | 6.30 | 6.34 | –

Row | SMILES | pIC50 (androgen receptor (AR); [1]) | pIC50 (PSA; [2]) | further results
38 | Cc1cccc2c(-c3nc4ccccc4s3)c[nH]c12 [13 760] | – | – | pIC50 (androgen receptor (AR); [3]): 7.00; pIC50 (PSA; media after 3 days, read-out: IC50 (PSA)): 6.28
39 | Fc1cccc2ccc(Cl)nc12 [Compound 13729] | – | – | eGFP IC50 (androgen receptor (AR); [5]): Inactive; PSA IC50 (PSA; [6]): Inactive
40 | c1ccc2cc(-c3c[nH]c4ccncc34)ccc2c1 [13 685] | – | – | IC50 (eGFP) (androgen receptor (AR); LN-ARR2PB-eGFP LNCaP cells, 0.1 nM R1881, 3 days, 0-100 μM compound): IC50 (eGFP) = Inactive; IC50 (PSA) (PSA; media after 3 days): IC50 (PSA) = Inactive
41 | Oc1cccc2c(C3Nc4ccccc4C34CCCCC4)c[nH]c12 (centres unmarked) [13 552] | – | – | pIC50 (androgen receptor (AR); [3]): 5.96; pIC50 (PSA; [4]): 5.94
42 | Cc1cc(F)cc2c(-c3ccc4cccc(F)c4n3)c[nH]c12 [Compound 13708] | 6.54 | 6.54 | –
43 | Cc1cc(C)c2[nH]cc(-c3ccc4cc(F)ccc4n3)c2c1 [Compound 13599] | – | – | eGFP IC50 (androgen receptor (AR); [5]): Inactive; PSA IC50 (PSA; [6]): Inactive
44 | Cc1ccc2ccc(Cl)nc2c1 [Compound 13727] | – | – | eGFP IC50 (androgen receptor (AR); [5]): Inactive; PSA IC50 (PSA; [6]): Inactive
45 | O=[N+]([O-])c1cccc2nc(-c3c[nH]c4ccccc34)ccc12 [Compound 13689] | – | – | eGFP IC50 (androgen receptor (AR); [5]): Inactive; PSA IC50 (PSA; [6]): Inactive
46 | c1ccc2ncc(-c3c[nH]c4ccncc34)cc2c1 [Compound 13637] | – | – | eGFP IC50 (androgen receptor (AR); [5]): Inactive; PSA IC50 (PSA; [6]): Inactive
47 | Brc1cccc2c(-c3ccc4ccccc4n3)c[nH]c12 [13 582] | – | – | pIC50 (androgen receptor (AR); [3]): 7.28; pIC50 (PSA; [4]): 7.39
48 | Fc1ccc(Cl)c2[nH]ccc12 [Compound 13726] | – | – | eGFP IC50 (androgen receptor (AR); [5]): Inactive; PSA IC50 (PSA; [6]): Inactive
49 | c1ccc(-c2cccc(-c3c[nH]c4ncccc34)c2)cc1 [13 734] | – | – | pIC50 (androgen receptor (AR); [3]): 4.96; pIC50 (PSA; [4]): 5.38
50 | Cc1cccc2c(-c3nc4ccccc4s3)c[nH]c12 [Compound 13760] | 7.00 | 7.28 | –
51 | Fc1cc(Cl)c2[nH]cc(-c3ccc4c(F)cccc4n3)c2c1 [Compound 13668] | – | – | eGFP IC50 (androgen receptor (AR); [5]): Inactive; PSA IC50 (PSA; [6]): Inactive
52 | Cc1ccccc1CSc1c(C)[nH]c2ccccc12 [Compound 13222] | 6.02 | 6.13 | –
53 | Fc1cccc2nc(-c3c[nH]c4ccccc34)ccc12 [Compound 13690] | – | – | eGFP IC50 (androgen receptor (AR); [5]): Inactive; PSA IC50 (PSA; [6]): Inactive
54 | Cc1cccc2c(C3Nc4ccccc4C34CCCCC4)c[nH]c12 (centres unmarked) [13 549] | – | – | pIC50 (androgen receptor (AR); [3]): 5.77; pIC50 (PSA; [4]): 5.59
55 | COC(=O)c1cccc2c(-c3ccc(Br)cc3)c[nH]c12 [Compound 13736] | 6.21 | 6.17 | –
56 | Cn1cc(-c2cc3ccccc3n2C)c2ccccc21 [Compound 13166] | 5.80 | 5.67 | –
57 | c1ccc2nc(-c3c[nH]c4ccccc34)ccc2c1 [13 562] | – | – | pIC50 (androgen receptor (AR); [3]): 7.22; pIC50 (PSA; [4]): 6.85
58 | Cc1ccc2nc(-n3ccc4cccc(C)c43)ccc2c1 [Compound 13647] | – | – | eGFP IC50 (androgen receptor (AR); [5]): Inactive; PSA IC50 (PSA; [6]): Inactive
